Data from patent US20080226596A1, “Therapeutic compositions and methods useful in treating hepatitis” (priority 2006, published 2008).
Entries after “also recorded” stand apart in the source; their conditions may differ.

Columns and labels:
[1] = biological target: T1, PTP1B (Homo sapiens, UniProt P18031); test: In vitro PTPase assay, GST/PTP1B; type: biochemical; details: compared with levamisole, pentamidine, ketoconazole
T1 construct: GST; purchased Upstate Biotechnology Inc. (Lake Placid, N.Y.)
Description: In vitro PTPase activities were measured using the commercial protein tyrosine phosphatase assay kit (Upstate Biotechnology, Inc. (“UBI”)) following established procedure known to one of skill in the art. This assay measures the in vitro dephosphorylation of a synthetic phosphotyrosine peptide of the sequence Arg-Arg-Leu-Ile-Glu-Asp-Ala-Gle-Tyr-Ala-Ala-Arg-Gly, wherein the tyrosine is phosphorylated (SEQ ID NO: 3). Briefly, 0.01 µg of GST/PTPase fusion proteins was incubated in 50 μL of Tris buffer (10 mM Tris, pH 7.4) containing different concentrations of inhibitors or chemicals (0-1,000 μg/ml) at 22° C. for 10 minutes, followed by addition of 0.2 mM of the phosphotyrosine peptide and incubation at 22° C. for 18 hours. 100 μL of Malachite Green solution was added and incubated for 5 minutes, and the absorbance at 660 nm was measured after 5 minutes.
In vitro PTPase assays were used to determine the effects of levamisole (Sigma), pentamidine (American Pharmaceutical Partners, Inc.), and ketoconazole (Sigma) on recombinant PTPases, following established procedures (Pathak et al., J. Imumol. 167, 3391 (2001); Pathak et al., Leukemia 16, 2285 (2002), Yi et al., J. Immunol. 169, 5978 (2002)) using a synthetic phosphotyrosine peptide or DiFMUP as the substrate as detailed above in section I.A.2.

[2] = system: Baf3 cells; test: Baf3 cell proliferation assay; type: cell-based, murine
Description: The murine hematopoietic cell line Baf3 was maintained in RPMI 1640 medium supplemented with 10% fetal calf serum (FCS) and murine IL-3 (20 units/ml) as described previously in Damen et al., J. Biol. Chem. 270, 23402 (1995). Human myeloid cell line TF-1 was maintained in RPMI 1640 supplemented with 10% FCS and 40 ng/ml of recombinant human GM-CSF as described previously in Thomassen et al., Clin. Immunol. 95, 85 (2000). For cell proliferation assays, cells were washed in 10% FCS medium twice, resuspended in 10% FCS medium, incubated at 37° C. for 16 hours, and then cultured at 37° C. in 10% FCS medium containing various amounts of cytokines, sodium stibogluconate, or potassium antimonyl tartrate for 3-6 days as indicated. The cell numbers in proliferation assays were determined by an MTT assay or by microscopic cell counting as indicated.

[3] = system: WiT49-N1 cells; test: WiT49-N1 Wilms tumor cell growth, MTT assay; type: cell-based, human; details: single agent, day 6; killing at 100 μg/ml
Description: For cell proliferation assays, cells were grown in 10% FCS culture medium containing various amounts of IFNs and/or sodium stibogluconate in 96 well plates and cultured at 37° C. for 3 or 6 days as indicated. The numbers of viable cells in proliferation assays were determined by MTT assays as described in Phatak et al., J. Immunol. 167, 3391 (2001).

[4] = biological target: T2, intracellular Flag-PRL-2 (Homo sapiens, UniProt Q12974); test: Immunocomplex PTPase assay, Flag-PRL-2 NIH3T3 transfectants; type: cell-based, mouse
T2 construct: expressed in transfected cells; host or cells: NIH3T3 transfectants, pBabepuro vector
Description: Immunocomplex PTPase assays were performed to assess the effects of sodium stibogluconate on intracellular PTPases. Cells were untreated or treated with sodium stibogluconate for 5 minutes, washed with fresh medium and then lysed in cold lysis buffer (50 mM Tris, pH 7.4; 150 mM NaCl; 1% NP40; 2 mM PMSF; 20, g/ml of Aprotinin). The lysates were incubated with an anti-Flag antibody in immunoprecipitation assays. The immunocomplexes were collected with protein G sepharose beads (Pharmacia) and washed in cold lysis buffer for 4 times. […] 100 µL of malachite green solution (UBI) was added to each reaction prior to measurement of OD660 to quantify the amounts of free phosphate cleaved by the PTPases from the peptide substrate (Pathak et al., J. Imumol. 167, 3391 (2001)). The remaining 10% contents of individual samples were analyzed by SDS-PAGE/Western blotting to quantify the relative amounts of the phosphatase proteins. […]
The effects of sodium stibogluconate on intracellular PTPases were assessed using NIH3T3 or WM9 transfectants. […]

T2 sequence (Q12974 whole entry): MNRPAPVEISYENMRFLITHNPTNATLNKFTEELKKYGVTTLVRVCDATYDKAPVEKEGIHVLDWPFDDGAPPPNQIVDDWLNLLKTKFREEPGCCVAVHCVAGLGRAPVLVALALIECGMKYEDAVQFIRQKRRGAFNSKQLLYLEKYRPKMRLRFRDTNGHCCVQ
T1 sequence (P18031 whole entry, species assumed): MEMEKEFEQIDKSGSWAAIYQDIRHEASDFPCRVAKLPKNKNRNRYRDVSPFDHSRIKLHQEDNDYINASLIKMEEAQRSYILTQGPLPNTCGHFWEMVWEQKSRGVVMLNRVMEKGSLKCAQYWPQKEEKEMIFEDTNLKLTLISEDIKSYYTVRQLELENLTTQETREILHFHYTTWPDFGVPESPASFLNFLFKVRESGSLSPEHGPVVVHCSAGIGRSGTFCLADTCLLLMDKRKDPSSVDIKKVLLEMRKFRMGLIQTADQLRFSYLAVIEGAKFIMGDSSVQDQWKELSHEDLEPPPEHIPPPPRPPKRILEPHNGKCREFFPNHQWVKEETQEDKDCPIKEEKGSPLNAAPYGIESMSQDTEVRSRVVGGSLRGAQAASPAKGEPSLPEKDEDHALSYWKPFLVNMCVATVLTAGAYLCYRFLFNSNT

With `O.O.O.O.O.O.O.O.O.O=C([O-])[C@@H]1[O][Sb]2([O-])([O][Sb]34([OH])[O][C@H]([C@H](O)CO)[C@H]([O]3)[C@H](C(=O)[O-])[O]4)[O][C@H]([C@H](O)CO)[C@@H]1[O]2.[Na+].[Na+].[Na+]` [sodium stibogluconate] the “inhibition of PTP1B” value [1] was “only modestly effective”, the “IL-3-induced Baf3 growth” value ([2]; 1,000 μg/ml) was “suppressed IL-3-induced Baf3 growth” and the “Baf3 proliferation/viability” value ([2]; absence of IL-3, day 3 culture) was “failed to support cell proliferation or maintain cell viability”. The “sensitivity/killing of WiT49-N1 cells” value [3] was “sensitive; also recorded: complete or near complete killing”, the “PTPase activity of Flag-PRL-2 immunocomplexes from treated cells” value ([4]; 5 min treatment) was “lack of PTPase activity; also recorded: markedly reduced PTPase activity” and the “time for full removal of effect on intracellular PRL-2 activity” value ([4]; brief treatment) was “at least 24 hours”.
